Laboratory results taken from patent publication US20120277165A1, “METHODS OF MODULATING FUCOSYLATION OF GLYCOPROTEINS” (priority 2009, published 2012).

Tests used:
[1] = tested on: Lec 13.6 A cells (CHO cells deficient in GDP-mannose 4,6, dehydratase) expressing CTLA4Ig; test: GDP-fucose levels in CHO cells (nucleotide sugar extraction, RP chromatography, UV); type: cell-based, Chinese hamster; conditions: relative to wild-type CHO = 100
Protocol: (§1) The levels of GDP-fucose levels and the degree of protein fucosylation on glycoproteins were analyzed for three different CHO cell lines expressing a representative secreted protein product (CTLA4Ig): CHO cells that are deficient in the enzyme GDP-mannose 4,6, dehydratase (Lec 13.6 A); CHO cells that have lowered levels of GDP-fucose (Lec 2); and wild-type CHO cells. […] Cells were harvested, and snap frozen, while culture supernatant was harvested and CTLA4Ig harvested by protein A purification for subsequent analysis. Cells were then subjected to nucleotide sugar extraction using standard methods. In short with chloroform:methanol:water (2:4:1), the pellets discarded and the resulting extraction dried down. The dried material was subsequently resuspended in 500 ul of 10% butanol in water and then extracted with 1 ml of 90% butanol in water. […] For quantification, sugar-nucletides were resolved with RP chromatography.
(§2) Protein products were isolated from culture supernatant by protein A affinity, and subjected to PNGase F treatment to remove glycans. The resulting glycans were isolated by PGC chromatography and subsequently analyzed by MALDI mass spectrometry. The % fucosylation was determined by determining the ratio of the glycans with or without core fucosylation. GDP-fucose levels are indicated in peak area as detected by UV.

[2] = tested on: Lec 13.6 A cells (CHO cells deficient in GDP-mannose 4,6, dehydratase) expressing CTLA4Ig; test: Degree of core fucosylation of glycans on secreted CTLA4Ig (PNGase F, MALDI mass spectrometry); type: cell-based, Chinese hamster; conditions: CTLA4Ig from Lec 13.6A cells
Protocol: as §1, §2

[3] = 0.01 mM exogenous fucose in culture media
[4] = 1 mM exogenous fucose in culture media

C[C@H](O)[C@@H](O)[C@@H](O)[C@H](O)C=O [fucose]
% of Parental GDP-fucose [1, 3]: 62.5%
% of Parental GDP-fucose [1, 4]: 270%
% Fucosylated Glycans [2, 3]: 45%
% Fucosylated Glycans [2, 4]: 100%
